Measurements as given in patent US20110224210A1, “NOVEL BIS-AMIDES AS ANTI-MALARIAL AGENTS” (priority 2008, published 2011).

system: P. falciparum K1 (strain resistant to chloroquine and pyrimethamine), erythrocytic stages; assay: Plasmodium falciparum in vitro assay, [3H] hypoxanthine incorporation; assay type: cell-based; details: Plasmodium falciparum, K1, P. falciparum strain K1; [3H] hypoxanthine incorporation; read-out: IC50 (nM) on K1
Outline: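 K1 strain parasites grown in human red cells, 2.5% haematocrit, 0.3% parasitaemia, 37 °C, 4% CO2/3% O2; compounds in seven serial doubling dilutions.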

**Q.** With `Cc1ccc(C=CC(=O)N(Cc2ccc(N3CCOCC3)nc2)[C@@H](Cc2ccccc2)C(=O)N2CCC(Cc3ccccc3)CC2)cc1` [Example 146, (S)-N-[1-Benzyl-2-(4-benzyl-piperidin-1-yl)-2-oxo-ethyl]-N-(6-morpholin-4-yl-pyridin-3-ylmethyl)-3-p-tolyl-acrylamide] as the molecule, how does the IC50 read?
**A.** The IC50 was 9 nM.

**Q.** With `CC(=O)N1CCN(c2ccc(CN(C(=O)C=Cc3ccc(C(F)(F)F)cc3)[C@@H](Cc3ccccc3)C(=O)N(C)CCOCC3CC3)cc2)CC1` [Example 207, (S)-N-[4-(4-Acetyl-piperazin-1-yl)-benzyl]-N-{1-[(2-cyclopropylmethoxy-ethyl)-methyl-carbamoyl]-2-phenyl-ethyl}-3-(4-trifluoromethyl-phenyl)-acrylamide] as the molecule, how does the IC50 read?
**A.** Its IC50 is 40 nM.

**Q.** For `O=C([C@H](Cc1ccccc1)N(Cc1ccc(N2CCOCC2)nc1)C(=O)C=Cc1ccc(C(F)(F)F)cc1)N1CCC(Cc2ccccc2)CC1` [Example 143, (S)-N-[1-Benzyl-2-(4-benzyl-piperidin-1-yl)-2-oxo-ethyl]-N-(6-morpholin-4-yl-pyridin-3-ylmethyl)-3-(4-trifluoromethyl-phenyl)-acrylamide], which IC50 is on record?
**A.** Its IC50 is 5 nM.

**Q.** Which IC50 does the source give for `CN(CCN(C)C(=O)[C@H](Cc1ccccc1)N(Cc1ccc(-c2ccccn2)cc1)C(=O)C=Cc1ccc(C(F)(F)F)cc1)Cc1ccc(Cl)s1` [Example 226, (S)-N-[1-({2-[(5-Chloro-thiophen-2-ylmethyl)-methyl-amino]-ethyl}-methyl-carbamoyl)-2-phenyl-ethyl]-N-(4-pyridin-2-yl-benzyl)-3-(4-trifluoromethyl-phenyl)-acrylamide] here?
**A.** Its IC50 is 75 nM.

**Q.** For `COCCN(C)C(=O)[C@H](Cc1ccccc1)N(Cc1ccc(N2CCOCC2)cc1)C(=O)C=Cc1ccc(C(F)(F)F)cn1` [Example 67, (S)-N-{1-[(2-Methoxy-ethyl)-methyl-carbamoyl]-2-phenyl-ethyl}-N-(4-morpholin-4-yl-benzyl)-3-(5-trifluoromethyl-pyridin-2-yl)-acrylamide], which IC50 is on record?
**A.** The IC50 was under 8 nM.

**Q.** With `CN(CCN(C)C(=O)[C@H](Cc1ccccc1)N(Cc1ccc(-c2ccccn2)cc1)C(=O)C=Cc1ccc(C(F)(F)F)cc1)Cc1ccsc1` [Example 232, (S)-N-(1-{Methyl-[2-(methyl-thiophen-3-ylmethyl-amino)-ethyl]-carbamoyl}-2-phenyl-ethyl)-N-(4-pyridin-2-yl-benzyl)-3-(4-trifluoromethyl-phenyl)-acrylamide] as the molecule, how does the IC50 read?
**A.** The IC50 was 33 nM.

**Q.** Which IC50 does the source give for `COCCN(C)C(=O)[C@H](Cc1ccccc1)N(Cc1ccc(N2CCOCC2)cc1)C(=O)C=Cc1nc(C)oc1C` [Example 65, (S)-3-(2,5-Dimethyl-oxazol-4-yl)-N-{1-[(2-methoxy-ethyl)-methyl-carbamoyl]-2-phenyl-ethyl}-N-(4-morpholin-4-yl-benzyl)-acrylamide] here?
**A.** The IC50 was 269 nM.

**Q.** `O=C([C@H](Cc1ccccc1)N(Cc1ccccn1)C(=O)C=Cc1ccc(C(F)(F)F)cc1)N1CCC(Cc2ccccc2)CC1` [Example 44, (S)-N-[1-Benzyl-2-(4-benzyl-piperidin-1-yl)-2-oxo-ethyl]-N-pyridin-2-ylmethyl-3-(4-trifluoromethyl-phenyl)-acrylamide] was tested. Which IC50 did it give?
**A.** Its IC50 is 14 nM.

**Q.** For `O=C([C@H](Cc1ccccc1)N(Cc1ccc(-c2ccccn2)cc1)C(=O)C=Cc1ccc(C(F)(F)F)cc1)N1CCC(Cc2ccccc2)CC1` [Example 46, (S)-N-[1-Benzyl-2-(4-benzyl-piperidin-1-yl)-2-oxo-ethyl]-N-(4-pyridin-2-yl-benzyl)-3-(4-trifluoromethyl-phenyl)-acrylamide], which IC50 is on record?
**A.** The IC50 was 1 nM.

**Q.** For `COCCN(C)C(=O)[C@H](Cc1ccccc1)N(Cc1ccc(-c2ccncc2)cc1)C(=O)C=Cc1cc(C)on1` [Example 95, (S)-N-{1-[(2-Methoxy-ethyl)-methyl-carbamoyl]-2-phenyl-ethyl}-3-(5-methyl-isoxazol-3-yl)-N-(4-pyridin-4-yl-benzyl)-acrylamide], which IC50 is on record?
**A.** The IC50 was 33 nM.

**Q.** For `COCCN(C)C(=O)[C@H](Cc1ccccc1)N(Cc1ccc(-c2ccncc2)cc1)C(=O)C=Cc1ccc(C(F)(F)F)cn1` [Example 102, (S)-N-{1-[(2-Methoxy-ethyl)-methyl-carbamoyl]-2-phenyl-ethyl}-N-(4-pyridin-4-yl-benzyl)-3-(5-trifluoromethyl-pyridin-2-yl)-acrylamide], which IC50 is on record?
**A.** Its IC50 is 6 nM.

**Q.** Which IC50 does the source give for `COc1ccc(C=CC(=O)N(Cc2ccc(N3CCOCC3)nc2)[C@@H](Cc2ccccc2)C(=O)N2CCC(Cc3ccccc3)CC2)cc1` [Example 145, (S)-N-[1-Benzyl-2-(4-benzyl-piperidin-1-yl)-2-oxo-ethyl]-3-(4-methoxy-phenyl)-N-(6-morpholin-4-yl-pyridin-3-ylmethyl)-acrylamide] here?
**A.** Its IC50 is 5 nM.

**Q.** For `COCCN(C)C(=O)C(Cn1cccc1)N(Cc1ccc(-c2ccncc2)cc1)C(=O)C=Cc1ccc(C(F)(F)F)cc1` (racemic) [Example 282], which IC50 is on record?
**A.** The IC50 was 35 nM.

**Q.** How did the IC50 turn out when `CC(=O)N1CCN(c2ccc(CN(C(=O)C=Cc3ccc(C(F)(F)F)cc3)[C@@H](Cc3ccccc3)C(=O)N(C)CCN(C)Cc3ccc(OC(C)C)cc3)cc2)CC1` [Example 244, (S)-N-[4-(4-Acetyl-piperazin-1-yl)-benzyl]-N-[1-({2-[(4-isopropoxy-benzyl)-methyl-amino]-ethyl}-methyl-carbamoyl)-2-phenyl-ethyl]-3-(4-trifluoromethyl-phenyl)-acrylamide] was run?
**A.** Its IC50 is 19 nM.

**Q.** With `COCCN(C)C(=O)[C@H](Cc1ccccc1)N(Cc1ccc(-c2cccnc2)cc1)C(=O)C=Cc1sc(C)nc1C` [Example 132, (S)-3-(2,4-Dimethyl-thiazol-5-yl)-N-{1-[(2-methoxy-ethyl)-methyl-carbamoyl]-2-phenyl-ethyl}-N-(4-pyridin-3-yl-benzyl)-acrylamide] as the molecule, how does the IC50 read?
**A.** Its IC50 is 28 nM.

**Q.** Which IC50 does the source give for `CC(=O)N1CCN(c2ccc(CN(C(=O)C=Cc3ccc(C(F)(F)F)cc3)[C@@H](Cc3ccccc3)C(=O)N(C)CCO)cc2)CC1` [Example 176, (S)-N-[4-(4-Acetyl-piperazin-1-yl)-benzyl]-N-{1-[(2-hydroxy-ethyl)-methyl-carbamoyl]-2-phenyl-ethyl}-3-(4-trifluoromethyl-phenyl)-acrylamide] here?
**A.** Its IC50 is 51 nM.

**Q.** With `COCCN(C)C(=O)C(Cc1cnn(C)c1)N(Cc1ccc(-c2ccncc2)cc1)C(=O)C=Cc1ccc(C(F)(F)F)cc1` (racemic) [Example 166] as the molecule, how does the IC50 read?
**A.** Its IC50 is 96 nM.

**Q.** For `CN(C)C1CCN(C(=O)[C@H](Cc2ccccc2)N(Cc2ccc(-c3cncnc3)cc2)C(=O)C=Cc2ccc(Cl)cn2)CC1` [Example 39, (S)-N-[1-Benzyl-2-(4-dimethylamino-piperidin-1-yl)-2-oxo-ethyl]-3-(5-chloro-pyridin-2-yl)-N-(4-pyrimidin-5-yl-benzyl)-acrylamide], which IC50 is on record?
**A.** Its IC50 is 170 nM.

**Q.** How did the IC50 turn out when `COCCN(C)C(=O)[C@H](Cc1ccccc1)N(Cc1ccc(N2CCN(C(C)=O)CC2)cc1)C(=O)C=Cc1c(C)noc1C` [Example 109, (S)-N-[4-(4-Acetyl-piperazin-1-yl)-benzyl]-3-(3,5-dimethyl-isoxazol-4-yl)-N-{1-[(2-methoxy-ethyl)-methyl-carbamoyl]-2-phenyl-ethyl}-acrylamide] was run?
**A.** Its IC50 is 100 nM.

**Q.** `COCCN(C)C(=O)C(CN1CCOCC1)N(Cc1ccc(-c2ccccn2)cc1)C(=O)C=Cc1ccc(C(F)(F)F)cc1` (racemic) [Example 279] was tested. Which IC50 did it give?
**A.** The IC50 was under 8 nM.

**Q.** How did the IC50 turn out when `CC(=O)N1CCN(c2ccc(CN(C(=O)C=Cc3ccc(C(F)(F)F)cc3)[C@@H](Cc3ccccc3)C(=O)N(C)CCOCc3cccnc3)cc2)CC1` [Example 190, (S)-N-[4-(4-Acetyl-piperazin-1-yl)-benzyl]-N-(1-{methyl-[2-(pyridin-3-ylmethoxy)-ethyl]-carbamoyl}-2-phenyl-ethyl)-3-(4-trifluoromethyl-phenyl)-acrylamide, formic acid] was run?
**A.** Its IC50 is 7 nM.

**Q.** `COCCN(C)C(=O)[C@H](Cc1ccccc1)N(Cc1ccc(N2CCOCC2)cc1)C(=O)C=Cc1ccc(C(F)(F)F)cc1` [Example 179, (S)-N-{1-[(2-Methoxy-ethyl)-methyl-carbamoyl]-2-phenyl-ethyl}-N-(4-morpholin-4-yl-benzyl)-3-(4-trifluoromethyl-phenyl)-acrylamide, formic acid] was tested. Which IC50 did it give?
**A.** The IC50 was 9 nM.

**Q.** For `COc1ccc(C=CC(=O)N(Cc2ccc(-c3ccncc3)cc2)[C@@H](Cc2ccccc2)C(=O)N2CCC(N(C)C)CC2)nn1` [Example 26, (S)-N-[1-Benzyl-2-(4-dimethylamino-piperidin-1-yl)-2-oxo-ethyl]-3-(6-methoxy-pyridazin-3-yl)-N-(4-pyridin-4-yl-benzyl)-acrylamide], which IC50 is on record?
**A.** The IC50 was 465 nM.

**Q.** For `CC(=O)N1CCN(c2ccc(CN(C(=O)C=Cc3c(C)nn(C)c3C)[C@@H](Cc3ccccc3)C(=O)N3CCC(N(C)C)CC3)cc2)CC1` [Example 33, (S)-N-[4-(4-Acetyl-piperazin-1-yl)-benzyl]-N-[1-benzyl-2-(4-dimethylamino-piperidin-1-yl)-2-oxo-ethyl]-3-(1,3,5-trimethyl-1H-pyrazol-4-yl)-acrylamide], which IC50 is on record?
**A.** Its IC50 is 319 nM.

**Q.** For `CC(=O)N1CCN(c2ccc(CN(C(=O)C=Cc3ccc(C(F)(F)F)cc3)[C@@H](Cc3ccccc3)C(=O)N(C)CCN(C)Cc3ccc4c(c3)OCO4)cc2)CC1` [Example 249, (S)-N-[4-(4-Acetyl-piperazin-1-yl)-benzyl]-N-(1-{[2-(benzo[1,3]dioxol-5-ylmethyl-methyl-amino)-ethyl]-methyl-carbamoyl}-2-phenyl-ethyl)-3-(4-trifluoromethyl-phenyl)-acrylamide], which IC50 is on record?
**A.** Its IC50 is 39 nM.

**Q.** With `Cc1c(C=CC(=O)N(Cc2ccc(-c3cncnc3)cc2)[C@@H](Cc2ccccc2)C(=O)N2CCC(N(C)C)CC2)cnn1C` [Example 43, (S)-N-[1-Benzyl-2-(4-dimethylamino-piperidin-1-yl)-2-oxo-ethyl]-3-(1,5-dimethyl-1H-pyrazol-4-yl)-N-(4-pyrimidin-5-yl-benzyl)-acrylamide] as the molecule, how does the IC50 read?
**A.** Its IC50 is 354 nM.

**Q.** With `COc1ccc(CN(C)C(=O)[C@H](Cc2ccccc2)N(Cc2ccc(N3CCOCC3)cc2)C(=O)C=Cc2ccc(C(F)(F)F)nc2)cc1` [Example 177, (S)-N-{1-[(4-Methoxy-benzyl)-methyl-carbamoyl]-2-phenyl-ethyl}-N-(4-morpholin-4-yl-benzyl)-3-(6-trifluoromethyl-pyridin-3-yl)-acrylamide] as the molecule, how does the IC50 read?
**A.** Its IC50 is 84 nM.

**Q.** `Cc1noc(C)c1C=CC(=O)N(Cc1ccc(-c2cncnc2)cc1)[C@@H](Cc1ccccc1)C(=O)N1CCC(N(C)C)CC1` [Example 38, (S)-N-[1-Benzyl-2-(4-dimethylamino-piperidin-1-yl)-2-oxo-ethyl]-3-(3,5-dimethyl-isoxazol-4-yl)-N-(4-pyrimidin-5-yl-benzyl)-acrylamide] was tested. Which IC50 did it give?
**A.** The IC50 was 417 nM.
